{"source": "patent US20230331720A1", "about": "“MEDIUM- OR MACRO-CYCLIC BENZYL-SUBSTITUTED HETEROCYCLE DERIVATIVES AND THEIR USES AS OREXIN-2 RECEPTOR AGONISTS” (Orexia Therapeutics Limited, priority 2020, published 2023)", "data": [{"target": "T1, human orexin type 2 receptor (hOX2R) (Homo sapiens, UniProt O43614)", "T1 construct": "expressed in transfected cells", "T1 sequence (O43614 1-444)": "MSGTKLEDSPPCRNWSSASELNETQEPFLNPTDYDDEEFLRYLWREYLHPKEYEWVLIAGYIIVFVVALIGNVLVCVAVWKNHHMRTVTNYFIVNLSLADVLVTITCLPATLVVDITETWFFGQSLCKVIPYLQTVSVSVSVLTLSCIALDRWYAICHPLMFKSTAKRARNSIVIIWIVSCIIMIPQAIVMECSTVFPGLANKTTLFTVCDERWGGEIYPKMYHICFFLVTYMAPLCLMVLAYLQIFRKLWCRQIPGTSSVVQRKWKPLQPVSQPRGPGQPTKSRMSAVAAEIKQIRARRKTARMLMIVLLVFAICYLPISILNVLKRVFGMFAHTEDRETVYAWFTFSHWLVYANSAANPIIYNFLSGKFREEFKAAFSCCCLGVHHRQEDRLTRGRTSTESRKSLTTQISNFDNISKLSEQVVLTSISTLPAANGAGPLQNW", "test": "Orexin type 2 receptor agonist activity, intracellular Ca2+ (FLIPR TETRA)", "type": "cell-based", "settings": "CHO cells expressing hOX2R; Ca2+ fluorescence area; read-out: hOx2 pEC50 (converted)", "experimental": "Stable cell line generation. Obtainment of cells stably expressing either human orexin type 2 or human orexin type 1 receptor; to obtain a stable cell line the Orexin receptor cDNA was inserted into pcDNA3.1(+) plasmid vector and clones identified by G418 drug resistance selection. […] A single clone for OX2R-CHO and OX1R-CHO were grown in bulk and frozen to generate a cell bank for routine screening.\nMeasurement of orexin type 2 receptor agonist activity. Chinese hamster ovary (CHO) cells expressing human orexin type 2 receptor (hOX2R) or human orexin type 1 receptor (hOX1R) were seeded in each well of 384 well black clear bottom plates (BD Flacon) at 10,000 cells per well and cultured for 24 hr in an Ham's F12 (Gibco) medium containing 10% fetal calf serum (Sigma Aldrich) under the conditions of 37° C., 5% CO2. After removal of the medium, 50 μl of assay buffer 1 (0.1% bovine serum albumin (Sigma Aldrich), 20 mM HEPES (Molecular Dimensions), […] probenecid (Sigma Aldrich), 1× Calcium 5 dye (Molecular Devices) in Hank's balanced salt solution (Invitrogen)) was added, and the cells were incubated for 60 min under the conditions of 37° C., 5% CO2. A test compound was dissolved in dimethyl sulfoxide (Sigma Aldrich) to 10 mM, and then diluted with assay buffer 2 (20 mM HEPES, Hank's balanced salt solution, 0.1% bovine serum albumin). For the reaction, a test compound solution (10 μl) was added using Fluorescent Imaging Plate Reader TETRA (FLIPR TETRA: manufactured by Molecular Devices), a fluorescence value (excitation wavelength 488 nm, measurement wavelength 570 nm) of each well was measured every one second for 2 min, and the agonist activity was determined using the area of the fluorescence value as an indicator of intracellular Ca^2+ concentration. The agonist activity of the test compound was calculated assuming that the fluorescence value of the well added with only the dilution buffer was 0% and the fluorescence value of the well added with 10 nM human orexin A (Tocris) buffer was 100%. As used herein, Emax indicates the value at 10 μM concentration when orexin A is converted to a full agonist (maximum value of agonist activity: 100%).", "units": {"EC50": "nM"}, "values": [{"smiles": "CCS(=O)(=O)NC1CCN2C(=O)CCC/C=C/c3ccccc3-c3cccc(c3)CC12", "note": "(mixture of isomers) [Compound A1-36, (E/Z)—N-(5-oxo-4(2,1)-pyrrolidina-1(1,2),2(1,3)-dibenzenacyclodecaphan-9-en-4^3-yl)ethanesulfonamide]", "EC50": "100 to 1000"}, {"smiles": "CS(=O)(=O)NC1CCCN2C(=O)CCCCc3ccccc3-c3cccc(c3)CC12", "note": "(racemic) [Compound A1-1, N-(5-oxo-4(2,1)-piperidina-1(1,2),2(1,3)-dibenzenacyclononaphane-4^3-yl)-methanesulfonamide]", "EC50": "100 to 1000"}, {"smiles": "CN1CCOc2ccccc2-c2cccc(c2)CC2C(NS(C)(=O)=O)CCCN2C1=O", "note": "(racemic) [Compound A1-2, N-(6-methyl-5-oxo-9-oxa-6-aza-4(2,1)-piperidina-1(1,2),2(1,3)-dibenzena-cyclo-nonaphane-4^3-yl)methanesulfonamide]", "EC50": "100 to 1000"}, {"smiles": "CS(=O)(=O)N[C@@H]1CCCN2C(=O)CCCOc3ccccc3-c3cccc(c3)C[C@H]12", "note": "(racemic) [Compound A1-6, N-(5-oxo-9-oxa-4(2,1)-piperidina-1(1,2),2(1,3)-dibenzenacyclononaphane-4^3-yl)methanesulfonamide]", "EC50": "10 to 100"}, {"smiles": "CS(=O)(=O)NC1CCN2C(=O)N3CC(CCc4ccccc4-c4cccc(c4)CC12)C3", "note": "(racemic) [Compound A1-13, N-(5-oxo-4-(2,1)-pyrrolidina-6-(1.3)-azetidina-1-(1,2),2-(1,3)-dibenzena-cyclooctaphane-4^3-yl)methanesulfonamide]", "EC50": "10 to 100"}, {"smiles": "CS(=O)(=O)NC1CCN2C(=O)N3CC(CCCc4ccccc4-c4cccc(c4)CC12)C3", "note": "(racemic) [Compound A1-14, N-(5-oxo-4(2,1)-pyrrolidina-6(1,3)-azetidina-1(1,2),2(1,3)-dibenzenacyclo-nonaphane-4^3-yl)methanesulfonamide]", "EC50": "10 to 100"}, {"smiles": "CS(=O)(=O)NC1CCCN2C(=O)NCCOc3ccccc3-c3cccc(c3)CC12", "note": "(racemic) [Compound A1-15, N-(5-oxo-9-oxa-6-aza-4(2,1)-piperidina-1(1,2),2(1,3)-dibenzenacyclo-nonaphane-4^3-yl)methanesulfonamide]", "EC50": "1 to 10"}, {"smiles": "CCS(=O)(=O)NC1CCN2C(=O)NCCCCCc3c(F)cc(F)cc3-c3cccc(c3)CC12", "note": "(racemic) [Compound A1-16, N-(1^3,1^5-difluoro-5-oxo-6-aza-4(2,1)-pyrrolidina-1-(1,2),2-(1,3)-dibenzena-cycloundecaphane-4^3-yl)ethanesulfonamide]", "EC50": "10 to 100"}, {"smiles": "CCS(=O)(=O)NC1CCN2C(=O)N(C)CCCCCc3ccccc3-c3cccc(c3)CC12", "note": "(racemic) [Compound A1-18, N-(6-methyl-5-oxo-6-aza-4(2,1)-pyrrolidina-1(1,2),2(1,3)-dibenzenacyclo-undecaphane-43-yl)ethanesulfonamide]", "EC50": "1 to 10"}, {"smiles": "CCS(=O)(=O)NC1CCN2C(=O)CCCc3ccccc3-c3cccc(c3)CC12", "note": "(racemic) [Compound A1-19, N-(5-oxo-4(2,1)-pyrrolidina-1(1,2),2(1,3)-dibenzenacyclooctaphane-4^3-yl)ethanesulfonamide]", "EC50": "100 to 1000"}, {"smiles": "CCS(=O)(=O)NC1CCN2C(=O)CCOCCCc3ccccc3-c3cccc(c3)CC12", "note": "(racemic) [Compound A1-20, N-(5-oxo-8-oxa-4(2,1)-pyrrolidina-1(1,2),2(1,3)-dibenzenacyclo-undecaphane-4^3-yl)ethanesulfonamide]", "EC50": "100 to 1000"}, {"smiles": "CCS(=O)(=O)NC1CCN2C(=O)CC/C=C\\c3ccccc3-c3cccc(c3)CC12", "note": "(racemic) [Compound A1-26, (E/Z)—N-(5-oxo-4(2,1)-pyrrolidina-1(1,2),2(1,3)-dibenzenacyclononaphan-8-en-4^3-yl)ethanesulfonamide]", "EC50": "100 to 1000"}, {"smiles": "CS(=O)(=O)NC1CCCN2C(=O)NCCCCCc3ccccc3-c3cccc(c3)CC12", "note": "(racemic) [Compound A1-27, N-(5-oxo-6-aza-4(2,1)-piperidina-1(1,2),2(1.3)-dibenzenacyclo-undecaphane-4^3-yl)methanesulfonamide]", "EC50": "1 to 10"}]}]}
